Laboratory results: patent publication US9139615B2, “High-affinity, dimeric inhibitors of PSD-95 as efficient neuroprotectants against ischemic brain damage and for treatment of pain” (University of Copenhagen, priority 2011, dated 2015)
Where no end group is shown, it is not given here.

Experiment: Blood-brain barrier permeability of fluorescent analogues
Assay type: in vivo, mice
Details: mouse, in vivo, iv
Procedure: VI.ii. Blood-brain Barrier Permeability. […] After injection of the compounds, the mice are perfused with paraformaldehyde and the brains are carefully removed, post-fixed in paraformaldehyde, processed into coronal sections, and quantified for fluorescence (Example 8).
The fluorescent ligands were injected intravenously (3 nmol/g) and the location of the ligands was detected by fluorescence microscopy of coronal brain slices (n=8) mice, was evaluated 2 hours after injection. Two sections of the brain, prior to and two after the anterior commissure (n=5), were selected for BBB permeability analysis. The anterior commissure (Bregma: −0.3) was used as a fix point in the brain in order to analyse anatomically identical brain sections. The intensity of the 5-FAM fluorophore was measured semi-quantitatively using a fluorescence microscopy system (Olympus System Microscope model BX-51, Denmark) with a 10× objective (Olympus 10×/0.15 UPlanApo) connected to a high-resolution microscope digital camera (Olympus model DP70), which transferred images to an image-capturing software (Image Pro Plus software). All images were taken using the same microscope settings and with constant camera exposure time. Intensities were quantified using the ImageJ software.
5-FAM-labeled derivative of Tat-NR2B9c is designated MS23. After injection of the compounds, the mice are perfused with paraformaldehyde and the brains are carefully removed, post-fixed in paraformaldehyde, processed into coronal sections, and quantified for fluorescence.
C57BL/6 mice with 6 hour post-surgical survival time were euthanized by cervical dislocation. C57BL/6 mice with 48 hour post-surgical survival were anesthetized with an overdosed of pentobarbital (the pharmacy of the Faculty of Life Sciences, University of Copenhagen, Denmark) in order to collect blood and tissue samples. All brains were carefully removed, frozen in gaseous CO2 and cut into 6 series of 30 μm coronal cryostat sections and stored at −80° C. until further use. C57BL/6J mice used to investigate the blood-brain barrier (BBB) permeability of AB143, AB145, AB148, and MS23 were deeply anesthetized and perfused through the left ventricle, using 10 ml chilled Soerensens phosphate buffer (SB) ([…], 125 mM Na2HPO4, pH 7.4) followed by 20 mL SB containing 4% paraformaldehyde (PFA). The brains were carefully removed and post-fixed in 4% PFA for 1 hour followed by immersion in SB containing 20% sucrose over night. The brains were frozen on gaseous CO2 and processed into 16 μm coronal cryostat sections.

Sequence: YGRKKRRQRRRKLSSIESDV [Tat-NR2B9c, reference compound]
- entry into brain, fluorescence microscopy of coronal brain slices: enter the brain
